Reference: ChEMBL document CHEMBL3045019, “Antioxidant and antimicrobial studies of novel N-(substituted-2-chloroquinolin-3-yl)methylidene-4-hydroxy-2H-1,2-benzothiazine-3-carbohydrazides 1,1-dioxides” (2012)
≈ marks a conversion by molar mass, not a printed value.

Legend:
Type in all cases: functional
[1] = Antioxidant activity assessed as superoxide radical scavenging activity by NBT reduction assay relative to control; set-up: concentration or dose not given beside the values
[2] = test system: Aspergillus niger; assay: Antifungal activity against Aspergillus niger after 3 to 5 days by agar dilution assay
[3] = test system: Fusarium oxysporum; assay: Antifungal activity against Fusarium oxysporum after 3 to 5 days by agar dilution assay
[4] = test system: Aspergillus flavus; assay: Antifungal activity against Aspergillus flavus after 3 to 5 days by agar dilution assay
[5] = test system: Enterobacter cloacae; assay: Antibacterial activity against Enterobacter cloacae after 24 hr by agar dilution assay
[6] = test system: Siminovitchia fortis; assay: Antibacterial activity against Bacillus fortis after 24 hr by agar dilution assay
[7] = test system: Salmonella enterica subsp. enterica serovar Gallinarum; assay: Antibacterial activity against Salmonella enterica subsp. enterica serovar Gallinarum after 24 hr by agar dilution assay
[8] = test system: Bacillus subtilis; assay: Antibacterial activity against Bacillus subtilis after 24 hr by agar dilution assay
[9] = test system: Escherichia coli; assay: Antibacterial activity against Escherichia coli after 24 hr by agar dilution assay
[10] = test system: Bacillus thuringiensis; assay: Antibacterial activity against Bacillus thuringiensis after 24 hr by agar dilution assay

Row | MIC [2] | MIC [3] | MIC [4] | MIC [5] | MIC [6] | MIC [7] | MIC [8] | MIC [9] | MIC [10] | SMILES | Activity [1]
1 | > 100 µg/mL | > 100 µg/mL | > 100 µg/mL | > 1000 µg/mL | > 100 µg/mL | > 1000 µg/mL | > 100 µg/mL | > 1000 µg/mL | > 100 µg/mL | Cc1ccc2nc(Cl)c(/C=N/NC(=O)C3=C(O)c4ccccc4S(=O)(=O)N3)cc2c1 | 51.8%
2 | > 1000 µg/mL | > 1000 µg/mL | > 1000 µg/mL | > 1000 µg/mL | > 100 µg/mL | > 1000 µg/mL | > 100 µg/mL | > 1000 µg/mL | > 100 µg/mL | COc1ccc2cc(/C=N/NC(=O)C3=C(O)c4ccccc4S(=O)(=O)N3C)c(Cl)nc2c1 | 65.1%
3 | > 1000 µg/mL | > 1000 µg/mL | > 1000 µg/mL | > 1000 µg/mL | > 1000 µg/mL | > 1000 µg/mL | > 1000 µg/mL | > 1000 µg/mL | > 1000 µg/mL | Cc1cccc2cc(/C=N/NC(=O)C3=C(O)c4ccccc4S(=O)(=O)N3C)c(Cl)nc12 | 61.3%
4 |  |  |  |  |  |  |  |  |  | CCCOC(=O)c1cc(O)c(O)c(O)c1 | 91.3%
5 | > 1000 µg/mL | > 1000 µg/mL | > 1000 µg/mL | > 1000 µg/mL | > 1000 µg/mL | > 1000 µg/mL | > 1000 µg/mL | > 1000 µg/mL | > 1000 µg/mL | Cc1ccc2cc(/C=N/NC(=O)C3=C(O)c4ccccc4S(=O)(=O)N3)c(Cl)nc2c1 | 49.1%
6 | > 1000 µg/mL | > 1000 µg/mL | > 1000 µg/mL | > 1000 µg/mL | > 1000 µg/mL | > 1000 µg/mL | > 1000 µg/mL | > 1000 µg/mL | > 1000 µg/mL | Cc1ccc2nc(Cl)c(/C=N/NC(=O)C3=C(O)c4ccccc4S(=O)(=O)N3C)cc2c1 | 51.2%
7 | > 1000 µg/mL | > 1000 µg/mL | > 1000 µg/mL | > 1000 µg/mL | > 1000 µg/mL | > 1000 µg/mL | > 1000 µg/mL | > 1000 µg/mL | > 1000 µg/mL | Cc1cccc2cc(/C=N/NC(=O)C3=C(O)c4ccccc4S(=O)(=O)N3)c(Cl)nc12 | 52.5%
8 | > 100 µg/mL | > 100 µg/mL | > 100 µg/mL | > 1000 µg/mL | > 200 µg/mL | > 1000 µg/mL | > 200 µg/mL | > 1000 µg/mL | > 200 µg/mL | COc1ccc2nc(Cl)c(/C=N/NC(=O)C3=C(O)c4ccccc4S(=O)(=O)N3C)cc2c1 | 67.2%
9 | > 1000 µg/mL | > 1000 µg/mL | > 1000 µg/mL | > 1000 µg/mL | > 100 µg/mL | > 1000 µg/mL | > 100 µg/mL | > 1000 µg/mL | > 100 µg/mL | Cc1ccc2cc(/C=N/NC(=O)C3=C(O)c4ccccc4S(=O)(=O)N3C)c(Cl)nc2c1 | 51.9%
10 | > 200 µg/mL | > 200 µg/mL | > 200 µg/mL | > 1000 µg/mL | > 100 µg/mL | > 1000 µg/mL | > 1000 µg/mL | > 1000 µg/mL | > 100 µg/mL | COc1ccc2cc(/C=N/NC(=O)C3=C(O)c4ccccc4S(=O)(=O)N3)c(Cl)nc2c1 | 72.1%
11 | > 500 µg/mL | > 500 µg/mL | > 500 µg/mL | > 1000 µg/mL | > 100 µg/mL | > 1000 µg/mL | > 100 µg/mL | > 1000 µg/mL | > 100 µg/mL | COc1ccc2nc(Cl)c(/C=N/NC(=O)C3=C(O)c4ccccc4S(=O)(=O)N3)cc2c1 | 69.7%
12 | 1 µg/mL (≈ 1.72 µM) | 1 µg/mL (≈ 1.72 µM) | 0.7 µg/mL (≈ 1.2 µM) | 1 µg/mL (≈ 1.72 µM) | 0.9 µg/mL (≈ 1.55 µM) | 1 µg/mL (≈ 1.72 µM) | 1 µg/mL (≈ 1.72 µM) | 0.7 µg/mL (≈ 1.2 µM) | 3 µg/mL (≈ 5.16 µM) | CN[C@@H]1[C@H](O[C@H]2[C@H](O[C@H]3[C@H](O)[C@@H](O)[C@H](N=C(N)N)[C@@H](O)[C@@H]3N=C(N)N)O[C@@H](C)[C@]2(O)C=O)O[C@@H](CO)[C@H](O)[C@H]1O [STREPTOMYCIN] | 

Row | SMILES | MIC [2] | MIC [3] | MIC [4] | MIC [5] | MIC [6] | MIC [7] | MIC [8] | MIC [9] | MIC [10] | Activity [1]
13 | CC1(C)S[C@@H]2[C@H](NC(=O)[C@H](N)c3ccc(O)cc3)C(=O)N2[C@H]1C(=O)O [AMOXICILLIN] | 2 µg/mL (≈ 5.47 µM) | 2 µg/mL (≈ 5.47 µM) | 2 µg/mL (≈ 5.47 µM) | 2 µg/mL (≈ 5.47 µM) | 2 µg/mL (≈ 5.47 µM) | 2 µg/mL (≈ 5.47 µM) | 3 µg/mL (≈ 8.21 µM) | 2 µg/mL (≈ 5.47 µM) | 6 µg/mL (≈ 16.4 µM) | 
